Laboratory results published in patent publication US7981903B2, “2-[2-{phenylamino}-1H-pyrrolo[2,3-D]pyrimidin-4-yl)amino] benzamide derivatives as IGF-1R inhibitors for the treatment of cancer” (GlaxoSmithKline LLC, priority 2007, dated 2011).

What was measured:
Format in all cases: cell-based
[1] = biological target: T1, NIH-3T3 cells overexpressing human IR (Homo sapiens, UniProt P06213); test: IR cellular autophosphorylation (DELFIA); conditions: 2 h compound, insulin 3 ug/ml for 15 minutes, IC50 category
T1 construct: expressed in transfected cells; host or cells: NIH-3T3 (mouse fibroblasts)
T1 sequence (P06213 28-1382): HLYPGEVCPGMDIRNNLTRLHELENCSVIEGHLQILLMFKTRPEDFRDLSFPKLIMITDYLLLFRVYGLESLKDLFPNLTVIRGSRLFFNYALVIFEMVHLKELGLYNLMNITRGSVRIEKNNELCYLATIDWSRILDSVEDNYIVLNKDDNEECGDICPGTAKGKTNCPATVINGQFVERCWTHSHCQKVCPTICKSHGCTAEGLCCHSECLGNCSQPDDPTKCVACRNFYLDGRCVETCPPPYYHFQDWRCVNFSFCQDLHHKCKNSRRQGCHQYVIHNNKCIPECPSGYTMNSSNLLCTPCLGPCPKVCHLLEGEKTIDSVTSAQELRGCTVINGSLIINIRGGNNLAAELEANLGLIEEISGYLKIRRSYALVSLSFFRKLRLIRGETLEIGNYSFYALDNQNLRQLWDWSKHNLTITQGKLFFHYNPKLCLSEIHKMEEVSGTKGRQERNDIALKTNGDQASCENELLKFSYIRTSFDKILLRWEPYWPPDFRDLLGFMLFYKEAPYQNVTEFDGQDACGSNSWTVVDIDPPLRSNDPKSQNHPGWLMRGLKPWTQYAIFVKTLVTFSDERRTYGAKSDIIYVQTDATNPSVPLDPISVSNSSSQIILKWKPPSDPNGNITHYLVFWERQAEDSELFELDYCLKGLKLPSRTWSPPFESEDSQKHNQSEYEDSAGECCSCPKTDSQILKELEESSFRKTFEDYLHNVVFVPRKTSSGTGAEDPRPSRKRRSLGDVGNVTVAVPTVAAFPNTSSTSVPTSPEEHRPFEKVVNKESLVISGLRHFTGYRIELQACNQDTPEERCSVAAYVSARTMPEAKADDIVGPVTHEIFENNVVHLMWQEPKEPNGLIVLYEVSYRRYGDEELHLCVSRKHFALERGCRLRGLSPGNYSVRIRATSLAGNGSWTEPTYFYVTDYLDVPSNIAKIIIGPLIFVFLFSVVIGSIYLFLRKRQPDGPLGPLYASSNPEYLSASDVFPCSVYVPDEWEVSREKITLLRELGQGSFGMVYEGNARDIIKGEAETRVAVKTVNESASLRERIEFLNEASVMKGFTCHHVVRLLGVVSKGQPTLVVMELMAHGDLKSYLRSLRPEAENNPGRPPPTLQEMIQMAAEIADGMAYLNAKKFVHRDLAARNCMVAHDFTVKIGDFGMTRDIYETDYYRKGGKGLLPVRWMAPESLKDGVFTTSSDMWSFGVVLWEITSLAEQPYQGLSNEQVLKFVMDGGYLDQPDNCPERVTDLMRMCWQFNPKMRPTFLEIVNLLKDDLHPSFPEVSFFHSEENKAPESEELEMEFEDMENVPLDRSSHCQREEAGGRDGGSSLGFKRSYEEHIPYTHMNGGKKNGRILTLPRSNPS
Summary of the method: (§1)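 Receptor autophosphorylation measured by DELFIA, capturing IGF-1R or IRβ and detecting with europium anti-pTyr, reported as percent of IGF-1- or insulin-stimulated signal. Compounds (30 uM to 1.5 nM) added 2 h before ligand, then 15 min stimulation (IGF-1 30 ng/ml or insulin 3 ug/ml).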

NCI-H929 = test: Inhibition of cell proliferation (CellTiter-Glo or InCell analyzer), NCI-H929; conditions: Homo sapiens, 72 h / 3 days, values given as IC50 category
Summary of the method: In one

Colo205 = test: Inhibition of cell proliferation (CellTiter-Glo or InCell analyzer), Colo205; conditions: Homo sapiens, COLO 205, 72 h / 3 days, values given as IC50 category
Summary of the method: In one

[2] = biological target: T2, NIH-3T3 cells overexpressing human IGF-1R (Homo sapiens, UniProt P08069); test: IGF-1R cellular autophosphorylation (DELFIA)
T2 construct: expressed in transfected cells; host or cells: NIH-3T3 (mouse fibroblasts)
T2 sequence (P08069 31-1367): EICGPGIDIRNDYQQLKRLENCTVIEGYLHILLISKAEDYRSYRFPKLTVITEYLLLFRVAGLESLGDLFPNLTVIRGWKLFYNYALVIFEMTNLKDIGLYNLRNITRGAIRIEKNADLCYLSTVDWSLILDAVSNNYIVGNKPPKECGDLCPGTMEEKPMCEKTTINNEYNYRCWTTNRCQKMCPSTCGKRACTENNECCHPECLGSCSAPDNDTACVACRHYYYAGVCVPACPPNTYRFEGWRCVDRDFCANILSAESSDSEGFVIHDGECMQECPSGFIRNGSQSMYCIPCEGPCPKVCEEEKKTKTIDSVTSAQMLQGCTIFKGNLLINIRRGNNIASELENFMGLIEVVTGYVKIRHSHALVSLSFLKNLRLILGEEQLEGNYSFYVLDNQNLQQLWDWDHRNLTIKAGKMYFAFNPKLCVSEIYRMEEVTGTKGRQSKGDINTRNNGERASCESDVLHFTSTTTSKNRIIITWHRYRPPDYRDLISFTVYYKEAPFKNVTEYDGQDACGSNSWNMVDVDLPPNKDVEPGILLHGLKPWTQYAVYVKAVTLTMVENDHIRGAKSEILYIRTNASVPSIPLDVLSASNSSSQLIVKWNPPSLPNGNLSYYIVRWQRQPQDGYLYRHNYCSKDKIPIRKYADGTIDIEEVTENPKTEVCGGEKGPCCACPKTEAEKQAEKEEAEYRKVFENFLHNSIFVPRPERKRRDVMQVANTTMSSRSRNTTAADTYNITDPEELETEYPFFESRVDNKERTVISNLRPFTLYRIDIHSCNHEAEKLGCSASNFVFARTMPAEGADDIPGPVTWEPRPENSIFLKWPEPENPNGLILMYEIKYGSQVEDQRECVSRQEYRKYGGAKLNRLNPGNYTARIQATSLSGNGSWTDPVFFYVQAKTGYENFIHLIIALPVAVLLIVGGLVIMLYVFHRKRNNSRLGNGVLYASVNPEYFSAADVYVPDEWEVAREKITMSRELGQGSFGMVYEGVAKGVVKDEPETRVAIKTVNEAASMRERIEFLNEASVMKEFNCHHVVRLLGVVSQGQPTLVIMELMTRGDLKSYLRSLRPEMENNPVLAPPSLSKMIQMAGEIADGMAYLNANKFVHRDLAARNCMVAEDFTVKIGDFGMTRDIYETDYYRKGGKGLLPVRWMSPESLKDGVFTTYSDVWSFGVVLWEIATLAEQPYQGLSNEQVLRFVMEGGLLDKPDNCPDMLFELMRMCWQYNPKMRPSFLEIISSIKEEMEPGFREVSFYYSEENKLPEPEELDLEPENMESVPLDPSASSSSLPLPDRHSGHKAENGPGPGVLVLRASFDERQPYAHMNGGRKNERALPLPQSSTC
Summary of the method: as §1

SMILES	IC50 [1] [nM]	IC50 (NCI-H929) [nM]	IC50 (Colo205) [nM]	IC50 [2] [nM]
COc1cc2c(cc1Nc1nc(Nc3cccc(F)c3C(N)=O)c3cc[nH]c3n1)N(C(=O)CN1CCOCC1)CC2 [Example 185, 2-fluoro-6-[(2-{[5-(methyloxy)-1-(4-morpholinylacetyl)-2,3-dihydro-1H-indol-6-yl]amino}-1H-pyrrolo[2,3-d]pyrimidin-4-yl)amino]benzamide]	> 500	< 250	> 1000	< 100
COc1cc2c(cc1Nc1nc(Nc3cccc(F)c3C(N)=O)c3cc[nH]c3n1)N(C(=O)CCN1CCOCC1)CC2 [Example 187, 2-fluoro-6-{[2-({5-(methyloxy)-1-[3-(4-morpholinyl)propanoyl]-2,3-dihydro-1H-indol-6-yl}amino)-1H-pyrrolo[2,3-d]pyrimidin-4-yl]amino}benzamide]	100 to 500	< 250	> 1000	100 to 500
COc1cc2c(cc1Nc1nc(Nc3cccc(F)c3C(N)=O)c3cc[nH]c3n1)N(C(=O)CCN1CCN(C(C)C)CC1)CC2 [Example 188, 2-fluoro-6-[(2-{[1-{3-[4-(1-methylethyl)-1-piperazinyl]propanoyl}-5-(methyloxy)-2,3-dihydro-1H-indol-6-yl]amino}-1H-pyrrolo[2,3-d]pyrimidin-4-yl)amino]benzamide]	> 500	250 to 1000	250 to 1000	> 500
CNC(=O)c1c(F)cc(F)cc1Nc1nc(Nc2cc3c(cc2OC)CCN3C(=O)CN(C)C)nc2[nH]ccc12 [Example 190, 2-[(2-{[1-(N,N-dimethylglycyl)-5-(methyloxy)-2,3-dihydro-1H-indol-6-yl]amino}-1H-pyrrolo[2,3-d]pyrimidin-4-yl)amino]-4,6-difluoro-N-methylbenzamide]	< 100	< 250	250 to 1000	< 100
CCCN(CCC)[C@@H](C)C(=O)N1CCc2cc(OC)c(Nc3nc(Nc4cccc(F)c4C(N)=O)c4cc[nH]c4n3)cc21 [Example 192, 2-[(2-{[1-(N,N-dipropyl-L-alanyl)-5-(methyloxy)-2,3-dihydro-1H-indol-6-yl]amino}-1H-pyrrolo[2,3-d]pyrimidin-4-yl)amino]-6-fluorobenzamide]	< 100	< 250	250 to 1000	< 100
COc1cc2c(cc1Nc1nc(Nc3cccc4c3C(=O)NC4)c3cc[nH]c3n1)N(C(=O)CN(C)C)CC2 [Example 200, 7-[(2-{[1-(N,N-dimethylglycyl)-5-(methyloxy)-2,3-dihydro-1H-indol-6-yl]amino}-1H-pyrrolo[2,3-d]pyrimidin-4-yl)amino]-2,3-dihydro-1H-isoindol-1-one]	< 100	< 250	< 250	< 100
COc1cc(OCCN2CCN(C)CC2)ccc1Nc1nc(Nc2cccc(F)c2C(N)=O)c2cc[nH]c2n1 [Example 203, 2-fluoro-6-({2-[(2-(methyloxy)-4-{[2-(4-methyl-1-piperazinyl)ethyl]oxy}phenyl)amino]-1H-pyrrolo[2,3-d]pyrimidin-4-yl}amino)benzamide]	< 100	< 250	250 to 1000	100 to 500
COc1cc(N2CCCN(S(C)(=O)=O)CC2)ccc1Nc1nc(Nc2cccc(F)c2C(N)=O)c2cc[nH]c2n1 [Example 207, 2-fluoro-6-{[2-({2-(methyloxy)-4-[4-(methylsulfonyl)hexahydro-1H-1,4-diazepin-1-yl]phenyl}amino)-1H-pyrrolo[2,3-d]pyrimidin-4-yl]amino}benzamide]	> 500	250 to 1000	250 to 1000	> 500
COc1cc(N2CCCN(C(C)C)CC2)ccc1Nc1nc(Nc2cccc(F)c2C(N)=O)c2cc[nH]c2n1 [Example 208, 2-fluoro-6-[(2-{[4-[4-(1-methylethyl)hexahydro-1H-1,4-diazepin-1-yl]-2-(methyloxy)phenyl]amino}-1H-pyrrolo[2,3-d]pyrimidin-4-yl)amino]benzamide]	100 to 500	< 250	250 to 1000	100 to 500
COc1cc2c(cc1Nc1nc(Nc3cccc(F)c3C(N)=O)c3cc[nH]c3n1)N(C(=O)CN(C)C)CCC2 [Example 210, 2-[(2-{[1-(N,N-dimethylglycyl)-6-(methyloxy)-1,2,3,4-tetrahydro-7-quinolinyl]amino}-1H-pyrrolo[2,3-d]pyrimidin-4-yl)amino]-6-fluorobenzamide]	< 100	< 250	< 250	< 100
COc1cc2c(cc1Nc1nc(Nc3cccc(F)c3C(N)=O)c3cc[nH]c3n1)NCCC2 [Example 211, 2-fluoro-6-[(2-{[6-(methyloxy)-1,2,3,4-tetrahydro-7-quinolinyl]amino}-1H-pyrrolo[2,3-d]pyrimidin-4-yl)amino]benzamide]	> 500	> 1000	> 1000	> 500

Now from value to compound:

IC50 [1] [nM]	IC50 (NCI-H929) [nM]	IC50 (Colo205) [nM]	IC50 [2] [nM]	SMILES
> 500	250 to 1000	> 1000	100 to 500	COc1cc2c(cc1Nc1nc(Nc3cccc(F)c3C(N)=O)c3cc[nH]c3n1)N(C(=O)CN1CCN(C(C)C)CC1)CC2 [Example 186, 2-fluoro-6-[(2-{[1-{[4-(1-methylethyl)-1-piperazinyl]acetyl}-5-(methyloxy)-2,3-dihydro-1H-indol-6-yl]amino}-1H-pyrrolo[2,3-d]pyrimidin-4-yl)amino]benzamide]
< 100	< 250	< 250	< 100	COc1cc2c(cc1Nc1nc(Nc3cc(F)cc(F)c3C(N)=O)c3cc[nH]c3n1)N(C(=O)CN(C)C)CC2 [Example 189, 2-[(2-{[1-(N,N-dimethylglycyl)-5-(methyloxy)-2,3-dihydro-1H-indol-6-yl]amino}-1H-pyrrolo[2,3-d]pyrimidin-4-yl)amino]-4,6-difluorobenzamide]
> 500	> 1000	> 1000	100 to 500	CCCN(CCC)[C@@H](C)C(=O)N1CCc2cc(OC)c(Nc3nc(Nc4cccc(F)c4C(=O)NC)c4cc[nH]c4n3)cc21 [Example 191, 2-[(2-{[1-(N,N-dipropyl-L-alanyl)-5-(methyloxy)-2,3-dihydro-1H-indol-6-yl]amino}-1H-pyrrolo[2,3-d]pyrimidin-4-yl)amino]-6-fluoro-N-methylbenzamide]
> 500	> 1000	> 1000	> 500	CNC(=O)c1c(F)cccc1Nc1nc(Nc2cc3c(cc2OC)CCN3C(=O)C(C)(C)O)nc2[nH]ccc12 [Example 193, 2-fluoro-6-[(2-{[1-(2-hydroxy-2-methylpropanoyl)-5-(methyloxy)-2,3-dihydro-1H-indol-6-yl]amino}-1H-pyrrolo[2,3-d]pyrimidin-4-yl)amino]-N-methylbenzamide]
100 to 500	< 250	250 to 1000	100 to 500	CNC(=O)c1c(F)cccc1Nc1nc(Nc2cc3c(cc2OC)CCCN3C(=O)[C@@H]2CCCN2C)nc2[nH]ccc12 [Example 202, 2-fluoro-N-methyl-6-[(2-{[6-(methyloxy)-1-(1-methyl-L-prolyl)-1,2,3,4-tetrahydro-7-quinolinyl]amino}-1H-pyrrolo[2,3-d]pyrimidin-4-yl)amino]benzamide]
> 500	< 250	< 250	> 500	COc1cc(N2CCN(S(C)(=O)=O)CC2)ccc1Nc1nc(Nc2cccc(F)c2C(N)=O)c2cc[nH]c2n1 [Example 204, 2-fluoro-6-{[2-({2-(methyloxy)-4-[4-(methylsulfonyl)-1-piperazinyl]phenyl}amino)-1H-pyrrolo[2,3-d]pyrimidin-4-yl]amino}benzamide]
100 to 500	< 250	< 250	100 to 500	COc1cc(OCCCN2CCN(C)CC2)ccc1Nc1nc(Nc2cccc(F)c2C(N)=O)c2cc[nH]c2n1 [Example 205, 2-fluoro-6-({2-[(2-(methyloxy)-4-{[3-(4-methyl-1-piperazinyl)propyl]oxy}phenyl)amino]-1H-pyrrolo[2,3-d]pyrimidin-4-yl}amino)benzamide]
> 500	250 to 1000	> 1000	> 500	CNC(=O)c1c(F)cccc1Nc1nc(Nc2cc3c(cc2OC)CCCN3C(=O)CCN(C)C)nc2[nH]ccc12 [Example 213, 2-[(2-{[1-(N,N-dimethyl-β-alanyl)-6-(methyloxy)-1,2,3,4-tetrahydro-7-quinolinyl]amino}-1H-pyrrolo[2,3-d]pyrimidin-4-yl)amino]-6-fluoro-N-methylbenzamide]
100 to 500	< 250	250 to 1000	100 to 500	COc1cc2c(cc1Nc1nc(Nc3cccc(F)c3C(N)=O)c3cc[nH]c3n1)N(C(=O)CCN(C)C)CCC2 [Example 214, 2-[(2-{[1-(N,N-dimethyl-β-alanyl)-6-(methyloxy)-1,2,3,4-tetrahydro-7-quinolinyl]amino}-1H-pyrrolo[2,3-d]pyrimidin-4-yl)amino]-6-fluorobenzamide]
< 100	< 250	< 250	< 100	COc1cc2c(cc1Nc1nc(Nc3cccc(F)c3C(N)=O)c3cc[nH]c3n1)N(C(=O)CN1CCCCC1)CCC2 [Example 218, 2-fluoro-6-[(2-{[6-(methyloxy)-1-(1-piperidinylacetyl)-1,2,3,4-tetrahydro-7-quinolinyl]amino}-1H-pyrrolo[2,3-d]pyrimidin-4-yl)amino]benzamide]
